Source: patent publication EP4631940A1, “COMPOUND TARGETING PAN-KRAS PROTEIN DEGRADATION AGENT AND USE THEREOF” (Betta Pharmaceuticals Co., Ltd., priority 2022, dated 2024)

How the values were obtained:
AGS = assay: Cell proliferation experiment (CellTiter-Glo); type: cell-based; details: Homo sapiens, AGS, 96 h, read-out: IC50(nM) AGS
PK59 = assay: Cell proliferation experiment (CellTiter-Glo); type: cell-based; details: PK-59; PK59, KRAS mutation type G12D; 96 h incubation
SW620 = assay: Cell proliferation experiment (CellTiter-Glo); type: cell-based; details: Homo sapiens, SW-620, 96 h, read-out: IC50(nM) SW620
KRAS G12D [1] = molecular target: T1, KRAS G12D (Homo sapiens, UniProt P01116, G12D)
in vitro [2] = details: human, microsomes
in vitro [3] = details: rat, microsomes
in vitro [4] = details: mouse, microsomes
in vitro [5] = details: dog, microsomes
KRAS G12D [6] = molecular target: T1, KRAS G12D; assay: cell-based; details: AGS
H358 = assay: Cell proliferation experiment (CellTiter-Glo); type: cell-based; details: Homo sapiens, NCI-H358; H358, KRAS mutation type G12C; 96 h incubation
[7] = PK study in ICR mice (whole blood); type: in vivo; details: Female ICR mice, IV 1 mg/kg; for AUC(0-t) / half-life / C0: mouse; for C0: read-out: C0
Description: Example 8 PK Study of Compound in ICR Mice (whole blood)
The compound was mixed with the vehicle (10% DMSO / 5% Solutol HS 15 / 85% saline), vortexed, and sonicated to prepare a clear solution at 0.2 mg/mL. Female ICR mice aged 6 to 7 weeks (non-fasted) were intravenously administered the compound. Whole blood was collected at specified time points. Drug concentration was analyzed by LC-MS/MS, and pharmacokinetic parameters were calculated using Phoenix WinNonlin software (Pharsight Corporation, USA). Table 11 Mouse PK Data for Intravenous Compound Monotherapy

T1 sequence (P01116 1-188 isoform P01116-2 G12D): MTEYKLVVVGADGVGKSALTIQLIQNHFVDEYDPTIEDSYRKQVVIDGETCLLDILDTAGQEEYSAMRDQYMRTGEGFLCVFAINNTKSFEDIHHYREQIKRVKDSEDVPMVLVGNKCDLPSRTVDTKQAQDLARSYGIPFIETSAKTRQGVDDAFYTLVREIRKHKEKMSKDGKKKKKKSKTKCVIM

## CCc1c(F)ccc2cc(O)cc(-c3ncc4c(N5CCC[C@@](C)(O)C5)nc(OCC5(CN6CCC(Oc7ccc(-c8cn([C@H](C(=O)N9C[C@H](O)C[C@H]9C(=O)N[C@@H](C)c9ccc(-c%10scnc%10C)cc9)C(C)C)nn8)nc7)CC6)CC5)nc4c3F)c12 [Compound 117]
AGS
  IC50: 13 nM
PK59
  IC50: 18.5 nM
SW620
  IC50: 47 nM
KRAS G12D [1]
  DC50: 0.0075 µM
In vitro [2]
  microsomal CLint: 8.8 µL/min/mg
In vitro [3]
  microsomal CLint: 11.3 µL/min/mg
In vitro [4]
  microsomal CLint: 10.1 µL/min/mg
In vitro [5]
  microsomal CLint: 6.6 µL/min/mg
KRAS G12D [6]
  Dmax: 95%

## CCc1c(F)ccc2cc(O)cc(-c3ncc4c(N5CCC[C@@](C)(O)C5)nc(OCC5(CN6CCC(Oc7ccc(-c8cn([C@H](C(=O)N9C[C@H](O)C[C@H]9C(=O)N[C@@H](CO)c9ccc(-c%10ccnn%10CC)cc9)C(C)C)nn8)cn7)CC6)CC5)nc4c3F)c12 [Compound 160]
AGS
  IC50: 14 nM
PK59
  IC50: 19.5 nM
SW620
  IC50: 88 nM
H358
  IC50: 17 nM
KRAS G12D [1]
  DC50: 0.002 µM
KRAS G12D [6]
  Dmax: 95%

## CCc1c(F)ccc2cc(O)cc(-c3ncc4c(N5CCC[C@@](C)(O)C5)nc(OCC5(CN6CCC(c7ccc(-c8cn([C@H](C(=O)N9C[C@H](O)C[C@H]9C(=O)N[C@@H](C)c9ccc(-c%10scnc%10C)cc9)C(C)C)nn8)cc7)CC6)CC5)nc4c3F)c12 [Compound 133]
AGS
  IC50: 13 nM
SW620
  IC50: 74 nM
H358
  IC50: 48 nM
[7]
  Cl_obs: 14.2 mL/min/kg
  Vss_obs: 2.49 L/kg
  AUC(0-t): 1200 ng·h/mL
  half-life: 5.77 h
  C0: 2840 ng/mL
KRAS G12D [1]
  DC50: 0.017 µM
In vitro [2]
  microsomal CLint: 7.4 µL/min/mg
In vitro [3]
  microsomal CLint: 7.2 µL/min/mg
In vitro [4]
  microsomal CLint: 8 µL/min/mg
In vitro [5]
  microsomal CLint: 9.3 µL/min/mg
KRAS G12D [6]
  Dmax: 95%

## CCc1c(F)ccc2cc(O)cc(-c3ncc4c(N5CCC[C@@](C)(O)C5)nc(OC[C@]56CCCN5[C@@H](COC(=O)N5CCC7(CC5)CC(C(=O)N[C@H](C(=O)N5C[C@H](O)C[C@H]5C(=O)N[C@@H](C)c5ccc(-c8scnc8C)cc5)C(C)(C)C)C7)CC6)nc4c3F)c12 [Compound 88]
AGS
  IC50: 33 nM
SW620
  IC50: 199 nM
H358
  IC50: 90 nM
[7]
  Cl_obs: 4.03 mL/min/kg
  Vss_obs: 0.780 L/kg
  AUC(0-t): 4110 ng·h/mL
  half-life: 5.61 h
  C0: 5000 ng/mL
In vitro [2]
  microsomal CLint: 13.4 µL/min/mg
In vitro [3]
  microsomal CLint: 10.1 µL/min/mg
In vitro [4]
  microsomal CLint: 24.5 µL/min/mg
In vitro [5]
  microsomal CLint: 13.3 µL/min/mg

## CCc1c(F)ccc2cc(O)cc(-c3ncc4c(N5CCC[C@@](C)(O)C5)nc(OCC5(CN6CCN(C78CC(c9cn([C@H](C(=O)N%10C[C@H](O)C[C@H]%10C(=O)N[C@@H](C)c%10ccc(-c%11scnc%11C)cc%10)C(C)C)nn9)(C7)C8)CC6)CC5)nc4c3F)c12 [Compound 149, (2S,4R)-1-((S)-2-(4-(3-(4-((1-(((7-(8-ethyl-7-fluoro-3-hydroxynaphthalen-1-yl)-8-fluoro-4-((R)-3-hydroxy-3-methylpiperidin-1-yl)pyrido[4,3-d]pyrimidin-2-yl)oxy)methyl)cyclopropyl)methyl)piperazin-1-yl)bicyclic[1.1.1]pent-1-yl)-1H-1,2,3-triazol-1-yl)-3-methylbutanoyl)-4-hydroxy-N-( (S)-1-(4-(4-methylthiazol-5-yl)phenyl)ethyl)pyrrolidine-2-carboxamide]
AGS
  IC50: 15 nM
PK59
  IC50: 57 nM
KRAS G12D [1]
  DC50: 0.0076 µM
KRAS G12D [6]
  Dmax: 95%
